A word on the koff: it is the first-order rate constant of dissociation. As a reminder, the kon is the rate constant with which the complex forms. Broadly, the pKi is the negative decadic logarithm of the Ki, by convention in mol/L.

Here are results for seven compounds from PMC5785503, “Development of novel fluorescent histamine H1-receptor antagonists to study ligand-binding kinetics in living cells” (Scientific Reports, 2018).

One assay concerns the target T1, human H1R (Homo sapiens, UniProt P35367).
T1 construct: expressed in transfected cells
Kind of assay: [3H]mepyramine competition radioligand binding, HEK293T cell homogenates. The following applies: read-out: Radioligand binding pKi (converted). How it is done:
[…]. […] […]. All ligand binding was performed under gentle agitation. […] […].

In assay [1] the target is T2, Nluc-H1R (Homo sapiens, UniProt P35367). Kind of assay: NanoBRET saturation binding in whole HEK293T cells. An excerpt: (§1) Immediately before experimentation, media was replaced with HBSS. […] […]. […] […].
T2 sequence (P35367 2-487 limits assumed): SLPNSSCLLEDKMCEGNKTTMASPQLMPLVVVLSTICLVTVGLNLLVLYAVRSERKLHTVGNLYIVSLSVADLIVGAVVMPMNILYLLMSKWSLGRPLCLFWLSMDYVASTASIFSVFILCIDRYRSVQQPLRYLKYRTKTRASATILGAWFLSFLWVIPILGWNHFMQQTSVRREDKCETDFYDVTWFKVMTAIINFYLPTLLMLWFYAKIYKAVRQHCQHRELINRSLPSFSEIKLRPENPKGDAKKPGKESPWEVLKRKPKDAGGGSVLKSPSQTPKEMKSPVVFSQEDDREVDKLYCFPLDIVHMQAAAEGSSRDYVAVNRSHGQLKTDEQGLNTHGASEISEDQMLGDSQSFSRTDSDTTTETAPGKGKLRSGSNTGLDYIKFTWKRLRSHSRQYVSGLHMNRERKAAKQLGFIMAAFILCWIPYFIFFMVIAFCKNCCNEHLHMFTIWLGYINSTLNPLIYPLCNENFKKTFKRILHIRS
(In general: BRET reads energy transfer from a luciferase to a nearby fluorophore.)

For assay [2], the target named is T2, Nluc-H1R. Kind of assay: NanoBRET association kinetics in whole HEK293T cells. The following applies: for Kd: kinetic KD (koff/kon), whole HEK293T cells expressing Nluc-H1R, read-out: NanoBRET kinetics pKD (converted); for residence time: read-out: NanoBRET kinetics Tr (residence time); for koff: read-out: NanoBRET kinetics koff, whole HEK293T cells expressing Nluc-H1R, room temperature; for kon: read-out: NanoBRET kinetics kon, whole HEK293T cells expressing Nluc-H1R, room temperature, non-specific 10 μM doxepin. The assay is classed as binding.
Text: as §1

A further assay addresses T3, H1-YFP (Homo sapiens, UniProt P35367).
T3 construct: expressed in transfected cells
It is filed as cell-based. As to the method:
CHO H1R and CHO H1-YFP cells were grown to approximately 80% confluency on 8-well Labtek chambered coverglasses (Nunc Nalgene). […] Cells were then incubated with the required concentration of fluorescent ligand for 30 min prior to the collection of single equatorial confocal images. Images were obtained using a Zeiss LSM710 confocal microscope (Carl Zeiss GmbH, Jena, Germany) fitted with a 63× plan-Apochromat NA1.3 Ph3 oil-immersion lens within the School of Life Sciences Imaging Unit. […] For all experiments a pinhole of 1 Airy Unit was used and fixed laser power, gain and offset for the BY630 containing compounds were kept the same for samples within each experiment.

The target of assay [3] is T2, Nluc-H1R. Kind of assay: NanoBRET saturation binding in HEK293T cell membranes. The following applies: value used in Cheng-Prusoff equation, read-out: KD of labelled ligand in membranes. As to the method: (§2) HEK293T cell stably expressing Nluc-H1 were grown to confluence in 500 cm^2 dishes. Normal growth media was replaced with ice-cold PBS and the cells were removed from the dish by scraping. The cells were then transferred to a 50 ml tube and centrifuged at 250 × g for 5 min. The supernatant was removed and the resulting pellets stored at −80 °C. Thawed pellets were resuspended in PBS and homogenized using an electrical homogenizer in 10 × 2 s bursts. Unbroken cells and nuclei were removed by centrifugation (1200 × g for 10 min) and the supernatant subsequently centrifuged at 41,415 g for 30 min. The membrane pellet was resuspended in PBS and homogenized by 20 passes of a glass-on-Teflon homogenizer. Protein concentration was determined using a BCA protein assay and membranes stored at −80 °C until required.
(§3) Immediately before experimentation, media was replaced with HBSS. […] For association kinetics experiments, the required concentration of fluorescent ligand in the presence or absence of 10 µM doxepin was added simultaneously. […] Non-specific binding was determined by the addition of […] 10 µM doxepin.

Assay [4] has as its target T2, Nluc-H1R. Kind of assay: NanoBRET association kinetics in HEK293T cell membranes. It is filed as binding. The following applies: kinetic, n = 4, read-out: pKD (calculated affinity) in membranes (converted). How it is done: as §2, §3
From association kinetic data, non-specific binding was determined for each concentration of fluorescent ligand at each time point by the addition of 10 µM doxepin and was subtracted from total binding.

Another assay has as its target H1R. Also on record: method as in PMID 22007643. The following applies: parent compound at the H1R; cited from earlier work.
Where [5] appears, read: HEK293T cells expressing Nluc-H1R, mean ± SEM, read-out: NanoBRET saturation pKD (converted).
[6] abbreviates: NanoBRET, value used in Cheng-Prusoff equation, read-out: KD of labelled ligand in whole cells.

T1 sequence (P35367 whole entry): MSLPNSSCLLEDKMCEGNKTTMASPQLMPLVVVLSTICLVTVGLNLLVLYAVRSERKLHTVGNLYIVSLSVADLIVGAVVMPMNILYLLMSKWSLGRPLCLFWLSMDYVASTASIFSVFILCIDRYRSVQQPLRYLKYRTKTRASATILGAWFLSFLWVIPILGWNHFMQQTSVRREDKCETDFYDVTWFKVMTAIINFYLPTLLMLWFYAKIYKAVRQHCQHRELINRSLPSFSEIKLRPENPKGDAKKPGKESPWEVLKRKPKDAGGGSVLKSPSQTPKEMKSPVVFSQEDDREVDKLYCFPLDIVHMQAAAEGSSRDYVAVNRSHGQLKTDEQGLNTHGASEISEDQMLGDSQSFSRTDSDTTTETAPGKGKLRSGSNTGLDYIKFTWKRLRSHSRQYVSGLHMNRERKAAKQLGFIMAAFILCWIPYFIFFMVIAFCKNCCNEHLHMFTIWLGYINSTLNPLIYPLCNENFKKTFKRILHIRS
T3 sequence (P35367 whole entry): as above

For `NC(=O)C[C@H](NC(=O)CNC(=O)CNC(=O)CCN1CCC(Oc2ccccc2Cc2ccccc2)CC1)C(=O)NCCNC(=O)CCCCCNC(=O)COc1ccc(/C=C/C2=[N+]3C(=Cc4ccc(-c5cccs5)n4[B-]3(F)F)C=C2)cc1` [Compound 24, (S,E)-2-(2-(2-(3-(4-(2-benzylphenoxy)piperidin-1-yl)propanamido)acetamido)acetamido)-N^1-(2-(6-(2-(4-(2-(5,5-difluoro-7-(thiophen-2-yl)-5H-4λ^4,5λ^4-dipyrrolo[1,2-c:2′,1′-f][1,3,2]diazaborinin-3-yl)vinyl)phenoxy)acetamido)hexanamido)ethyl)succinamide], on human H1R, the Ki is 5.01 nM. Further, the Kd at Nluc-H1R [1] (setting [5]) was 25.1 nM. At Nluc-H1R [2], the Kd was 10 nM, the residence time was 37.8 ± 3.44 min, the off-rate (koff) was 0.00045 s⁻¹ and the kon is 48300 M⁻¹ s⁻¹.
As for `C[C@H](NC(=O)CCN1CCC(Oc2ccccc2Cc2ccccc2)CC1)C(=O)N[C@@H](C)C(=O)N[C@@H](C)C(=O)NCCNC(=O)CCCCCNC(=O)COc1ccc(/C=C/C2=[N+]3C(=Cc4ccc(-c5cccs5)n4[B-]3(F)F)C=C2)cc1` [Compound 23, N-((5 S,8 S,11 S)-15-(4-(2-benzylphenoxy)piperidin-1-yl)-5,8,11-trimethyl-4,7,10,13-tetraoxo-3,6,9,12-tetraazapentadecyl)-6-(2-(4-((E)-2-(5,5-difluoro-7-(thiophen-2-yl)-5H-4λ^4,5λ^4-dipyrrolo[1,2-c:2′,1′-f][1,3,2]diazaborinin-3-yl)vinyl)phenoxy)acetamido)hexanamide], the Ki on human H1R is 3.98 nM. In addition, the Kd at Nluc-H1R [1] (setting [5]) was 7.94 nM. The Kd on Nluc-H1R [1] (setting [6]) was 9.8 nM. Moreover, at Nluc-H1R [2], the Kd was 12.6 nM, the residence time is 54.1 ± 5.33 min, the koff was 0.000317 s⁻¹ and the kon is 26700 M⁻¹ s⁻¹. On H1-YFP, the “fluorescence after pre-treatment with unlabelled mepyramine (specificity, confocal)” value (“fluorescence after pre-treatment” below) is reported as “Some residual binding was observed”.
On to `COc1ccc(CN(CCN(C)CCC(=O)N[C@@H](C)C(=O)N[C@@H](C)C(=O)NCCNC(=O)CCCCCNC(=O)COc2ccc(/C=C/C3=[N+]4C(=Cc5ccc(-c6cccs6)n5[B-]4(F)F)C=C3)cc2)c2ccccn2)cc1` [Compound 10, 6-(2-(4-((E)-2-(5,5-difluoro-7-(thiophen-2-yl)-5H-4λ^4,5λ^4-dipyrrolo[1,2-c:2′,1′-f][1,3,2]diazaborinin-3-yl)vinyl)phenoxy)acetamido)-N-((10 S,13 S)-1-(4-methoxyphenyl)-5,10,13-trimethyl-8,11,14-trioxo-2-(pyridin-2-yl)-2,5,9,12,15-pentaazaheptadecan-17-yl)hexanamide], for which the Ki at human H1R was 25.1 nM. Besides, the Kd at Nluc-H1R [3] is 28.8 nM; at Nluc-H1R [1] (setting [5]), 7.94 nM; on Nluc-H1R [1] (setting [6]), 9.2 nM; at Nluc-H1R [4], 3.55 nM; on Nluc-H1R [2], 5.01 nM. Besides, on Nluc-H1R [2], the residence time amounted to 4.99 ± 0.78 min. On H1-YFP, the “BODIPY630/650 fluorescence localisation (confocal)” value is given as “clear membrane localisation”. The “fluorescence after pre-treatment” value at H1-YFP is recorded as “very little fluorescence was observed”.
`COc1ccc(CN(CCN(C)CCC(=O)N[C@@H](C)C(=O)N[C@@H](C)C(=O)N[C@@H](CO)C(=O)NCCNC(=O)CCCCCNC(=O)COc2ccc(/C=C/C3=[N+]4C(=Cc5ccc(-c6cccs6)n5[B-]4(F)F)C=C3)cc2)c2ccccn2)cc1` [Compound 11, 6-(2-(4-((E)-2-(5,5-difluoro-7-(thiophen-2-yl)-5H-4λ^4,5λ^4-dipyrrolo[1,2-c:2′,1′-f][1,3,2]diazaborinin-3-yl)vinyl)phenoxy)acetamido)-N-((10 S,13 S,16 S)-16-(hydroxymethyl)-1-(4-methoxyphenyl)-5,10,13-trimethyl-8,11,14,17-tetraoxo-2-(pyridin-2-yl)-2,5,9,12,15,18-hexaazaicosan-20-yl)hexanamide]: the Ki at human H1R was 10 nM. Besides, the Kd on Nluc-H1R [1] (setting [5]) is 63.1 nM. At Nluc-H1R [2], the Kd is 6.31 nM, the residence time was 8.4 ± 0.91 min, the koff was 0.0021 s⁻¹ and the kon is 330000 M⁻¹ s⁻¹. Moreover, on H1-YFP, the “BODIPY630/650 fluorescence localisation (confocal)” value is reported as “clear membrane localisation” and the “fluorescence after pre-treatment” value is “some residual cell surface fluorescence was observed”.
With `CC(O)[C@H](NC(=O)[C@H](C)NC(=O)[C@H](CC(N)=O)NC(=O)CCN1CCC(Oc2ccccc2Cc2ccccc2)CC1)C(=O)NCCNC(=O)CCCCCNC(=O)COc1ccc(/C=C/C2=[N+]3C(=Cc4ccc(-c5cccs5)n4[B-]3(F)F)C=C2)cc1` (stereo partly drawn) [Compound 25, (S)-2-(3-(4-(2-benzylphenoxy)piperidin-1-yl)propanamido)-N^1-((15 S,18 S)-1-(4-((E)-2-(5,5-difluoro-7-(thiophen-2-yl)-5H-4λ^4,5λ^4-dipyrrolo[1,2-c:2′,1’-f][1,3,2]diazaborinin-3-yl)vinyl)phenoxy)-15-((S)-1-hydroxyethyl)-2,9,14,17-tetraoxo-3,10,13,16-tetraazanonadecan-18-yl)succinamide], at human H1R, the Ki is 6.31 nM. Besides, at Nluc-H1R [1] (setting [5]), the Kd is 31.6 nM. On Nluc-H1R [2], the Kd is 10 nM, the residence time turned out to be 39.5 ± 9.4 min, the dissociation rate constant (koff) was 0.0005 s⁻¹ and the kon is 43300 M⁻¹ s⁻¹.
Turning to `c1ccc(Cc2ccccc2OC2CCNCC2)cc1` [VUF13816, 4-(2-benzylphenoxy)piperidine], at H1R, the pKi is 8.20.
Take `COc1ccc(CN(CCN(C)CCC(=O)NCCCC(=O)N[C@@H](C)C(=O)N[C@@H](C)C(=O)NCCNC(=O)CCCCCNC(=O)COc2ccc(/C=C/C3=[N+]4C(=Cc5ccc(-c6cccs6)n5[B-]4(F)F)C=C3)cc2)c2ccccn2)cc1` [Compound 12, 5,5-difluoro-3-((E)-4-(((15 R,18 R)-1-(4-methoxyphenyl)-5,15,18-trimethyl-8,13,16,19,24,31-hexaoxo-2-(pyridin-2-yl)-2,5,9,14,17,20,23,30-octaazadotriacontan-32-yl)oxy)styryl)-7-(thiophen-2-yl)-5H-4λ^4-dipyrrolo[1,2-c:2′,1′-f][1,3,2]diazaborinin-5-uide]: the Ki at human H1R is 20 nM. The Kd at Nluc-H1R [1] (setting [5]) was 50.1 nM. Further, on Nluc-H1R [2], the Kd was 39.8 nM, the residence time was 7.68 ± 0.58 min, the off-rate constant (koff) is 0.00223 s⁻¹ and the kon was 55000 M⁻¹ s⁻¹. On H1-YFP, the “BODIPY630/650 fluorescence localisation (confocal)” value was “clear membrane localisation” and the “fluorescence after pre-treatment” value is reported as “very little fluorescence was observed”.
